Reference: ChEMBL document CHEMBL1201862, “PubChem BioAssay data set” (2004)
Active and inactive are the calls of the source.

Columns and labels:
[1] = target: T1, E3 ubiquitin-protein ligase XIAP (Homo sapiens, UniProt P98170); experiment: small molecules displacing peptide from XIAP – biochemical, IAP family, fluorescence polarization (AID 1018); assay type: functional
[2] = target: T1, E3 ubiquitin-protein ligase XIAP; experiment: Counter Screen using XIAP-Bir3 for Chemical Antagonists of Bir1/2 domains of IAP-family anti-apoptotic proteins. [Related pubchem assays (depositor defined):AID1018, AID1449, AID1514, AID1638, AID1749, AID1750, AID488957, AID488963]
[3] = target: T2, Sphingosine 1-phosphate receptor 4 (Homo sapiens, UniProt O95977); experiment: Fluorescence dose response cell-based high throughput screening assay for agonists of the Sphingosine 1-Phosphate Receptor 4 (S1P4). [Related pubchem assays: 1509 (Primary screen.), 1523 (Confirmation screen in triplicates.)]; assay type: functional
T2 sequence (O95977 whole entry): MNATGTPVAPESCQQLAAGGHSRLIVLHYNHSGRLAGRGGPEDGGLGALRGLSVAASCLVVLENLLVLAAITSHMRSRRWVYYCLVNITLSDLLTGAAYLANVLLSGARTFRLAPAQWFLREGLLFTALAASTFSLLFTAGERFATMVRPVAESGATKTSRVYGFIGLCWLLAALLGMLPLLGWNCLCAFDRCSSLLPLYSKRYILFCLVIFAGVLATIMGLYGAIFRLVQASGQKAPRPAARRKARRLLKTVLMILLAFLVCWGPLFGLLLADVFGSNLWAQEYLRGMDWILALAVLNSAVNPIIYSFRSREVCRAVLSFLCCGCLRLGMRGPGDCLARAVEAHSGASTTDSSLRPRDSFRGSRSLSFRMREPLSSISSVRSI

[4] = target: T3, Zinc finger protein mex-5 (Caenorhabditis elegans, UniProt Q9XUB2); experiment: potency of MEX-5 RNA-binding blockers – biochemical, C. elegans, fluorescence polarization, dose response (AID 1960)
T3 sequence (Q9XUB2 whole entry): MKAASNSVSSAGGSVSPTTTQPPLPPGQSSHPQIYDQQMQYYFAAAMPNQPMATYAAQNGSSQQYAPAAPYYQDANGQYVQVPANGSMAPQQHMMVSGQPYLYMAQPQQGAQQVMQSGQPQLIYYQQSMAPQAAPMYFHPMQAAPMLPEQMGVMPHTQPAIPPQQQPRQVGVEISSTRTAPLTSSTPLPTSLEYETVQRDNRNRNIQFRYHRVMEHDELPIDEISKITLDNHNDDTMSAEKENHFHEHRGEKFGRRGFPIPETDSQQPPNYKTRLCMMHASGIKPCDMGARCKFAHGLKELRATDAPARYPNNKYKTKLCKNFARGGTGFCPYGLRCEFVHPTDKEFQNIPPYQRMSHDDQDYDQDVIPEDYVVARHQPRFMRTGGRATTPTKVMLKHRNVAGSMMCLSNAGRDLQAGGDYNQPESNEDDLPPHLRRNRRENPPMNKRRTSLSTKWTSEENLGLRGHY

CAAX prenyl protease 2 = CAAX prenyl protease 2 (Homo sapiens, UniProt Q9Y256); experiment: inhibition of Ras-converting CAAX protease Rce1 – biochemical, yeast membranes, quenched-peptide fluorescence, cherry-pick, dose response (AID 588849)
[5] = Counterscreen for IDE inhibitors: Luminescence-based cell-based high throughput dose response assay to identify compounds that are cytotoxic to HEK cells. [Related pubchem assays: 434962 (Primary screen (IDE inhibitors in singlicate)), 449730 (Counterscreen (Cytotoxicity in triplicate)), 435028 (Confirmation (IDE inhibitors in triplicate)) …; assay type: functional; conditions: HEK293
[6] = target: T4, RNA-binding protein pos-1 (Caenorhabditis elegans, UniProt G5EF15); experiment: disruptors of C. elegans POS-1 RNA interaction – biochemical, fluorescence polarization, dose response (AID 1964);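 note: purified POS-1 fused to maltose binding protein made in E. coli; potency of compounds blocking POS-1 binding to fluorescent RNA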
T4 sequence (G5EF15 whole entry): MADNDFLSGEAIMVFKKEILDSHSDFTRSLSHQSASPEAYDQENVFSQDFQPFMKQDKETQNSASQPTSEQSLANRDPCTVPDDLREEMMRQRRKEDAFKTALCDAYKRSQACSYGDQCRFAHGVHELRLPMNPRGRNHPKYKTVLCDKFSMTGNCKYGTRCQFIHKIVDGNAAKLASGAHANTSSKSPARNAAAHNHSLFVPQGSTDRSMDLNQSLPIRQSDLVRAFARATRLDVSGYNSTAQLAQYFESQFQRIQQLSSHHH

Insulin-degrading enzyme = target: T5, Insulin-degrading enzyme (Homo sapiens, UniProt P14735); experiment: Dose Response: Fluorescence polarization-based cell-based high throughput dose response assay for inhibitors of insulin-degrading enzyme (IDE). [Related pubchem assays: 434962 (Primary screen (IDE inhibitors in singlicate)), 449730 (Counterscreen (Cytotoxicity in triplicate)), 435028 (Confirmation (IDE inhibitors in triplicate)), 434984 (Summary …; assay type: functional
T5 sequence (P14735 whole entry): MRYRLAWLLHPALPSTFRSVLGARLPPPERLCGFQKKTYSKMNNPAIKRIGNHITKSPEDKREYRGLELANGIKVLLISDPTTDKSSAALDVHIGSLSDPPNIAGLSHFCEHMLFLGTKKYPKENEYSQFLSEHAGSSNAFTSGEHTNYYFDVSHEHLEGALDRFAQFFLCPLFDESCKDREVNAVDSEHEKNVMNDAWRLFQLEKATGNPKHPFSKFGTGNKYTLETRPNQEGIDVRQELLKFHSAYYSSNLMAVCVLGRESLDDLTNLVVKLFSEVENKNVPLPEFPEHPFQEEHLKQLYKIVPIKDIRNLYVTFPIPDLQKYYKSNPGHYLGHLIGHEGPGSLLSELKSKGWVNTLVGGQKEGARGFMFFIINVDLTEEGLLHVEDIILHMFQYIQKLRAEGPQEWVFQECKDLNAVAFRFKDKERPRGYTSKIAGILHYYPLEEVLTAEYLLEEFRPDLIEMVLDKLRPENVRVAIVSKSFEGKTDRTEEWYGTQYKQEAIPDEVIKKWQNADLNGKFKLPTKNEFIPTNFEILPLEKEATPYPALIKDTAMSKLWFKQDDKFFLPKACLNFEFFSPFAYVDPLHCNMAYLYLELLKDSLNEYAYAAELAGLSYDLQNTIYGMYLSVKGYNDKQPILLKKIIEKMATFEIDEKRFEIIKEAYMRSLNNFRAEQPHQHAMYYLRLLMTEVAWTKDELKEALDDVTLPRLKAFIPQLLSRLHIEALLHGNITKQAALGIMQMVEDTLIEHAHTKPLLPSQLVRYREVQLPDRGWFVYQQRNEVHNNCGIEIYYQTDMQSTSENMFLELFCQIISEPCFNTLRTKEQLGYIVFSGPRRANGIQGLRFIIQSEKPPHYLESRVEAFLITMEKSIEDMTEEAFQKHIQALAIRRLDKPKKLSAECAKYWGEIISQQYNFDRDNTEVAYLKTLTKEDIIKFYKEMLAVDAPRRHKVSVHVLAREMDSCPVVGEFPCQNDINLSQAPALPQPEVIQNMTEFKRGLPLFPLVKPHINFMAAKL

[7] = target: Sphingosine 1-phosphate receptor 1 (Homo sapiens, UniProt P21453); experiment: Fluorescence-based counterscreen assay for S1P4 agonists: Cell-based dose response high throughput screening assay to identify agonists of the Sphingosine 1-Phosphate Receptor 1 (S1P1). [Related pubchem assays (depositor defined):AID1509, AID1523, AID1801, AID463107, AID463118, AID463119, AID463122, AID463123, AID463129, AID463225, AID504400, AID504460]; assay type: functional
[8] = target: Kappa-type opioid receptor (Homo sapiens, UniProt P41145); experiment: SAR analysis of small molecule agonists of the kappa opioid receptor via a luminescent beta-arrestin assay - Set 3. [Related pubchem assays (depositor defined):AID1777, AID1785, AID1786, AID1966, AID2133, AID2136, AID2284, AID2500]; assay type: functional
[9] = target: Voltage-dependent T-type calcium channel subunit alpha-1H (Homo sapiens, UniProt O95180); experiment: human CACNA1H calcium influx blockade – cell-based, synthetic library set 2, HEK293 HH8, Fluo-4, SAR follow-up (AID 493023); assay type: functional
Sequence of Voltage-dependent T-type calcium channel subunit alpha-1H (O95180 whole entry): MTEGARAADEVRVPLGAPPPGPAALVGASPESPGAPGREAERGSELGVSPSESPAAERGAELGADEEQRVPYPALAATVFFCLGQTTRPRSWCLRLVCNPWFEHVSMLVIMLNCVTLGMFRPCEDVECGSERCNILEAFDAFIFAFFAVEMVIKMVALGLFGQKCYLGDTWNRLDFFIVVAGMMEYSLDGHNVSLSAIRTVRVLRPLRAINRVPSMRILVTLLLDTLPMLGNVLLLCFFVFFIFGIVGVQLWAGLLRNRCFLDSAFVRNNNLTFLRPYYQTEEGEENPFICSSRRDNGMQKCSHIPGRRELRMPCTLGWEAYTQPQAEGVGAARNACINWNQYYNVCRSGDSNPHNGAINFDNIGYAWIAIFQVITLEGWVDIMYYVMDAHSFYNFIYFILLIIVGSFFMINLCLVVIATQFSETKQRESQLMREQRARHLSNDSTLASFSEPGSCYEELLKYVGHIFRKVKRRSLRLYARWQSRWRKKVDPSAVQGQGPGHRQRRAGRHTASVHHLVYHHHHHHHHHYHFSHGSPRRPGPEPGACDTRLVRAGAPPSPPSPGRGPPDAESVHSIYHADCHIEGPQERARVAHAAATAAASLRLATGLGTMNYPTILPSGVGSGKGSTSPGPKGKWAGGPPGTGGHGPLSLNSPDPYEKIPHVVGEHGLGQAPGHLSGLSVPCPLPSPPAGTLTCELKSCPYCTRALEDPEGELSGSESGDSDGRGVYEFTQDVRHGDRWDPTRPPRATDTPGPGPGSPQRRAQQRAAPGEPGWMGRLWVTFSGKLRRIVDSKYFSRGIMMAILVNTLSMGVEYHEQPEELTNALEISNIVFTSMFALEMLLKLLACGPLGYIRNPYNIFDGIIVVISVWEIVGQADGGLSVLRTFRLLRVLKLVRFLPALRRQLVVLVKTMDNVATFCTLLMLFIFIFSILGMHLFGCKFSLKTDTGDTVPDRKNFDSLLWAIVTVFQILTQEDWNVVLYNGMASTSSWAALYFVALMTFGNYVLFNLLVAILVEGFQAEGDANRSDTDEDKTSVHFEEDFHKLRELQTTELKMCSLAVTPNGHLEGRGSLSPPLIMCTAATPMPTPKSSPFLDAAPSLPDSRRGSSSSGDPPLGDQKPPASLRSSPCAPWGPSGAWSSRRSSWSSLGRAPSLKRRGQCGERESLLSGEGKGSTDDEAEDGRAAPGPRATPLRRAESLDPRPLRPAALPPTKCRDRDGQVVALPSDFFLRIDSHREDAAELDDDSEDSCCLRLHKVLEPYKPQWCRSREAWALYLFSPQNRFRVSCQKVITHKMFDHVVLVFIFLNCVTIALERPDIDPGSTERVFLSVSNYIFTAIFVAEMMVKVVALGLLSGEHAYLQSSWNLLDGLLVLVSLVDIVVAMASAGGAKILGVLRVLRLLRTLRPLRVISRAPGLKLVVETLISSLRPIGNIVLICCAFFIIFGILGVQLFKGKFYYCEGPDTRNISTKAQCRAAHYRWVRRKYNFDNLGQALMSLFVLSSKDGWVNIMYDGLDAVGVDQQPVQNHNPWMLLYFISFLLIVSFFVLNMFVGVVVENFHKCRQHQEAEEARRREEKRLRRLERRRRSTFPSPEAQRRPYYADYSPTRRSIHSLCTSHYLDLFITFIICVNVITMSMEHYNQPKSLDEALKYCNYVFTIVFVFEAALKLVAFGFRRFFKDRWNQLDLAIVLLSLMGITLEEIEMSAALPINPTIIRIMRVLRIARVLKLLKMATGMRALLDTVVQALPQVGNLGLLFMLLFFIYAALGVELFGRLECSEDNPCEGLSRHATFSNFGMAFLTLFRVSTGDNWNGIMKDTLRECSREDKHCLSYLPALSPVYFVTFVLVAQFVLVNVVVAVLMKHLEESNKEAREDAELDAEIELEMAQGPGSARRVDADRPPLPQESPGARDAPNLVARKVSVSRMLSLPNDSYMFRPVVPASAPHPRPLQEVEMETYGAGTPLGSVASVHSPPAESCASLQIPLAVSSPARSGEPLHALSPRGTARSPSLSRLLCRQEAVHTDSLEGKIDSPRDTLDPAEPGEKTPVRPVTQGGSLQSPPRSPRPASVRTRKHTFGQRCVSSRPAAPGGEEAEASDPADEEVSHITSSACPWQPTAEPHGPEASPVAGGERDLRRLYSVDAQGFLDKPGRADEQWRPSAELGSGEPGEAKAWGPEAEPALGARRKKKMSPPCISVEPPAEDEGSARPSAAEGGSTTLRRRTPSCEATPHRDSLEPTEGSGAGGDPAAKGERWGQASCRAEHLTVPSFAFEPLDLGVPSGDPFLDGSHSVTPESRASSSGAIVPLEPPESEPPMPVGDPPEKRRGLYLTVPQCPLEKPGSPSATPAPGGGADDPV

T1 sequence (P98170 whole entry): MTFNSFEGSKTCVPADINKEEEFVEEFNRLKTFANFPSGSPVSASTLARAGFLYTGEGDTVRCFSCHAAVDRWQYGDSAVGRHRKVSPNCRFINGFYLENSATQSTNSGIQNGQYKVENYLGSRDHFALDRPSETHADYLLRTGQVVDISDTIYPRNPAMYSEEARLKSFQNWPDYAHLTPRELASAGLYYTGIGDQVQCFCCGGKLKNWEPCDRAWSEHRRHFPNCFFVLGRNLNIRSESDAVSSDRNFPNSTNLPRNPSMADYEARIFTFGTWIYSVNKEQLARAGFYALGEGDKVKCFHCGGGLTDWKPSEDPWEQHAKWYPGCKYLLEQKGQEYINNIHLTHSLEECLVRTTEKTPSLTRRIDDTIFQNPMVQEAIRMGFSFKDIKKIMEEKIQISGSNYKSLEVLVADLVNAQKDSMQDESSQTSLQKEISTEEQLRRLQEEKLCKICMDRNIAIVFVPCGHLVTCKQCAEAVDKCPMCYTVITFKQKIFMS
Sequence of Kappa-type opioid receptor (P41145 whole entry): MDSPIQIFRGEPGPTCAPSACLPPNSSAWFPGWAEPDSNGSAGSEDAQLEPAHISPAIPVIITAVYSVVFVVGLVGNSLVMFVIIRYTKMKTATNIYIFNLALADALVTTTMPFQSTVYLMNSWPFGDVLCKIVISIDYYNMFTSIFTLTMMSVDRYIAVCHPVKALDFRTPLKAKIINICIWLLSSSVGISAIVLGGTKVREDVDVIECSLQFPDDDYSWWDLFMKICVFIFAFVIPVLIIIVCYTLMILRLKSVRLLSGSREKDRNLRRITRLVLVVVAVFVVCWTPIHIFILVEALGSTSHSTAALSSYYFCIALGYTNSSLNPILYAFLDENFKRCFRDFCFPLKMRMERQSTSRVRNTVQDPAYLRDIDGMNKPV
Sequence of CAAX prenyl protease 2 (Q9Y256 whole entry): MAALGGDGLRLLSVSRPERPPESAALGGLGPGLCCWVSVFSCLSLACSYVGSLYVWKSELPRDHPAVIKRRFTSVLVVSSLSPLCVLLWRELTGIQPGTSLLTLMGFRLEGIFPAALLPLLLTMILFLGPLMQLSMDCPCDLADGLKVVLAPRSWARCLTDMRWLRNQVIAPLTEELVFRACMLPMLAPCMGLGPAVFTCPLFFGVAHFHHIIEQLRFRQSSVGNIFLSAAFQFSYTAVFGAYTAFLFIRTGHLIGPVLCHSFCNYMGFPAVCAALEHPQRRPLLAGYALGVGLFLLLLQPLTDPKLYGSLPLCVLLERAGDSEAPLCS
Sequence of Sphingosine 1-phosphate receptor 1 (P21453 whole entry): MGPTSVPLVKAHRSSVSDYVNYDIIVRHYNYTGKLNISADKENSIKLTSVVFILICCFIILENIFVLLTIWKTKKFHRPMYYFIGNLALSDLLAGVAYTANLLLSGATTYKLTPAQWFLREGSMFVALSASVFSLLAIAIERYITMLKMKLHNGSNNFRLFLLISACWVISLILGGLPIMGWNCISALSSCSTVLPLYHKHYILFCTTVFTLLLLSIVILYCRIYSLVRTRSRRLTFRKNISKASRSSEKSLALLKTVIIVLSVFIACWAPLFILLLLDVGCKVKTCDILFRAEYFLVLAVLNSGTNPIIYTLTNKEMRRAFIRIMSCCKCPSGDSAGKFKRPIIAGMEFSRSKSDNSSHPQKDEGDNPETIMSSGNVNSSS

With `C=CCNC(=O)/C(C#N)=C/c1cn(-c2ccccc2)nc1-c1ccc(OC)c([N+](=O)[O-])c1` the IC50 [1] was > 100 µM (not active) and the IC50 [2] was > 100 µM (inactive).

In the case of `COc1ccc(C2CC(c3cccs3)=NN2c2ccc(C=O)cc2)cc1` (stereo unspecified), the EC50 [3] is reported as 8.63 µM (active), the EC50 [4] is reported as 24.6 µM (active) and the AC50 (CAAX prenyl protease 2) is reported as 8.53 µM (active). The IC50 [5] was 41.2 µM (not active), the EC50 [6] was 18.3 µM (active) and the IC50 (Insulin-degrading enzyme) was > 55.9 µM (not active). For the same compound, the EC50 [7] was 12.5 µM (inactive).

With `Brc1ccc(CSc2nnc(-c3ccccn3)n2Cc2cccnc2)cc1` the EC50 [8] was 8.51 µM (active).

In the case of `CC(C)(C)CCN1CCC[C@@H](NC(=O)c2ccc(Cl)cc2Cl)C1`, the EC50 [9] is reported as 10 µM (active).
